In general, IC50 refers to the concentration that inhibits the measured activity by half. High values mean lower potency, low ones higher potency. Usually inhibition stands for the drop in the measured response relative to a control, in per cent.

Activity calls are given as the source filed them. No rule for the calls is given here.

The assay concerns the target C-X-C chemokine receptor type 6 (Homo sapiens) (UniProt O00574). Description: CXCR6 receptor antagonists, dose response, cell-based, beta-arrestin, DiscoveRx, APJ panel, uHTS hits (AID 624129). Particulars: CXCR6 beta-arrestin (DiscoveRx) antagonist cell assay; for outcome: CXCR6, dose range 1; for inhibition: CXCR6, run 2, dose range 1, at 79 µM (top of the series).
Where [1] appears, read: CXCR6, dose range 1, mean IC50 across replicates.

C-X-C chemokine receptor type 6 (Homo sapiens), sequence (O00574 whole entry, looked up): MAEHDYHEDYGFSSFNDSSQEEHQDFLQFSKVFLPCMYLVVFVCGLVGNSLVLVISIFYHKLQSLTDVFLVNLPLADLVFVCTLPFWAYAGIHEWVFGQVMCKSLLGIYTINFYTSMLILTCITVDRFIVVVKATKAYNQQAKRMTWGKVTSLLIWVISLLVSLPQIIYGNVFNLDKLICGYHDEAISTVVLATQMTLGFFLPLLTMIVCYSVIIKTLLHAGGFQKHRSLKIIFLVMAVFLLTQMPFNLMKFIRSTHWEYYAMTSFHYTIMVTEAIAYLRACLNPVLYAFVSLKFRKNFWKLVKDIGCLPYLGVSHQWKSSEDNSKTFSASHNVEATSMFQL

In the case of `O=C1c2cccc3c([N+](=O)[O-])ccc(c23)C(=O)N1c1ccccn1`, the result was inactive and the inhibition came out at 101%. Also, the IC50 under setting [1] was 24.3 µM. Moreover, the IC50 (CXCR6, run 1, dose range 2) came out at 24.3 µM. Besides, under “CXCR6, run 2, dose range 2”, the IC50 turned out to be 24.2 µM.
As for `O=C(C(=Cc1ccc(F)cc1)C(=O)c1ccccc1)c1ccccc1`, the result was inactive and the inhibition amounted to 112%. Under setting [1], this compound registered an IC50 of 13.7 µM. Further, the IC50 (CXCR6, run 1, dose range 2) was determined as 11.8 µM. Also, the IC50 (CXCR6, run 2, dose range 2) was determined as 15.5 µM.
The corresponding values for `CCC(=O)OCCNc1cc(SCCC(=O)OC)c2nonc2c1[N+](=O)[O-]` are “inactive”, 108%, 22.5 µM, 21.5 µM and 23.5 µM.
The corresponding values for `Cn1c(=O)[nH]c(=O)c2c1nc(Sc1nc3ccccc3s1)n2Cc1ccccc1` are “inactive”, 77.5%, 21.9 µM, 18.3 µM and 25.6 µM.
Take `CC(=O)N1N=C(c2cccs2)CC1c1cccc([N+](=O)[O-])c1` (stereo not given): the outcome was inactive and the inhibition worked out at 73.7%. Also, the IC50 under setting [1] was found to be 23.2 µM. The same compound registered an IC50 (CXCR6, run 1, dose range 2) of 20.8 µM. Besides, the IC50 (CXCR6, run 2, dose range 2) is 25.5 µM.
The corresponding values for `Cc1ccc(NC(=O)c2ccc(Nc3c([N+](=O)[O-])cc([N+](=O)[O-])cc3[N+](=O)[O-])cc2)cc1` are “inactive”, 89.3%, 28.5 µM, 31.4 µM and 25.7 µM.
`COC(=O)c1ccc(C)c(-n2c(=O)n(Cc3ccccc3)c(=O)c3[nH]cnc32)c1`: the result was inactive and the inhibition stood at 73%. Under setting [1], this compound came in with an IC50 of 12.9 µM. Further, under “CXCR6, run 1, dose range 2”, the IC50 is 11.6 µM. The IC50 (CXCR6, run 2, dose range 2) worked out at 14.1 µM.
For the compound `CCOc1ccc(Nc2ccc([N+](=O)[O-])c3nonc23)cc1`, the result was inactive and the inhibition was 81.7%. Moreover, the IC50 under setting [1] worked out at 38.8 µM. For the same compound, the IC50 (CXCR6, run 1, dose range 2) was 33.7 µM. The IC50 (CXCR6, run 2, dose range 2) came to 43.9 µM.
The corresponding values for `COc1cccc(-c2nnc(NC(=O)c3ccc(Cl)s3)o2)c1` are “inactive”, 67.6%, 14.3 µM, 12.5 µM and 16.1 µM.
The like results for `O=C(C#Cc1ccccc1)c1ccccc1` were, in that order, “inactive”, 113%, 11.3 µM, 10.9 µM and 11.6 µM.
Consider `CCOC(=O)[C@]12Cc3cc(Cl)ccc3[C@H]1N(C1CCCCC1)C(=O)c1cc(OC)ccc12`, for which the outcome was inactive and the inhibition was found to be 113%. The IC50 under setting [1] amounted to 17.8 µM. Under “CXCR6, run 1, dose range 2”, this compound came in with a 50% inhibitory concentration (IC50) of 16.2 µM. This compound showed an IC50 (CXCR6, run 2, dose range 2) of 19.5 µM.
The corresponding values for `CS(=O)(=O)c1ncc(Cl)c(C(=O)Nc2ccc(OC(F)F)cc2)n1` are “inactive”, 113%, 13.3 µM, 12.4 µM and 14.2 µM.
The corresponding values for `CCCCC(=O)NC(=S)NNC(=O)c1ccc(OC)cc1` are “inactive”, 98%, 11.5 µM, 10.2 µM and 12.9 µM.
The like results for `COc1ccc(-c2nn(C)c(=O)c3ccccc23)cc1NC(=O)Cn1nc(C)c2ccccc2c1=O` were, in that order, “inactive”, 72.1%, 34.5 µM, 21.8 µM and 47.2 µM.
Consider `O=C(NNc1ccc([N+](=O)[O-])cc1[N+](=O)[O-])c1ccco1`, for which the outcome was inactive and the inhibition amounted to 86.8%. Also, the IC50 under setting [1] came out at 30.2 µM. Further, under “CXCR6, run 1, dose range 2”, the IC50 was 30.4 µM. Under “CXCR6, run 2, dose range 2”, the IC50 came to 29.9 µM.
The like results for `O=C(COC(=O)C1CCN(S(=O)(=O)c2cccs2)CC1)c1cc2ccccc2o1` were, in that order, “inactive”, 27.4%, 16.8 µM, 16.8 µM and above 79 µM.
The like results for `Cc1nnc(Sc2cc(NCCO)c([N+](=O)[O-])c3nonc23)s1` were, in that order, “inactive”, 114%, 12.1 µM, 9.44 µM and 14.7 µM.
Turning to `CCC1=NN(C(=O)c2ccc([N+](=O)[O-])cc2)C(O)(c2ccccc2)C1` (stereo not given), the outcome was inactive and the inhibition is 91.7%. Further, the IC50 under setting [1] is 44.8 µM. This compound also had an IC50 (CXCR6, run 1, dose range 2) of 25.2 µM. The IC50 (CXCR6, run 2, dose range 2) worked out at 64.4 µM.
The like results for `Cc1ccc(P(=O)(c2ccc(C)cc2)[C@@H](NC(c2ccccc2)c2ccccc2)c2ccccc2)cc1` were, in that order, “inactive”, 82.4%, 19.6 µM, 17 µM and 22.1 µM.
In the case of `CCC(C)c1ccc(O)c(NC(=S)NC(=O)c2cccs2)c1` (stereo not given), the outcome was inactive and the inhibition is 82.8%. The same compound came in with an IC50 under setting [1] of 11.8 µM. Further, the IC50 (CXCR6, run 1, dose range 2) was 15.4 µM. This compound registered an IC50 (CXCR6, run 2, dose range 2) of 8.27 µM.
As to `O=C1c2cccc3c([N+](=O)[O-])ccc(c23)C(=O)N1Cc1cccnc1`, the result was inactive and the inhibition was found to be 110%. Under setting [1], this compound showed an IC50 of 27.8 µM. The compound also returned an IC50 (CXCR6, run 1, dose range 2) of 25 µM. This compound also came in with an IC50 (CXCR6, run 2, dose range 2) of 30.5 µM.
With `Cc1cccc(NC(=S)NNc2ncc(C(F)(F)F)cc2Cl)c1`, the outcome was inactive and the inhibition was determined as 109%. Further, the IC50 under setting [1] amounted to 20.5 µM. This compound also registered an IC50 (CXCR6, run 1, dose range 2) of 26.4 µM. Moreover, the concentration for half-maximal inhibition (IC50) (CXCR6, run 2, dose range 2) is 14.7 µM.
The like results for `COc1cc(/C=C/c2ccc3cccc(OC)c3n2)c(OC(C)=O)c([N+](=O)[O-])c1` were, in that order, “inactive”, 78.8%, 28.4 µM, 35 µM and 21.8 µM.
For `CCOC(=O)c1ccc(NC(=O)c2nc(S(=O)(=O)Cc3ccccc3)ncc2Cl)cc1`, the outcome was inactive and the inhibition worked out at 111%. The compound also showed an IC50 under setting [1] of 12.9 µM. Further, where the note is “CXCR6, run 1, dose range 2”, the half-inhibitory concentration (IC50) was determined as 12.3 µM. The same compound showed an IC50 (CXCR6, run 2, dose range 2) of 13.5 µM.
The corresponding values for `COC(=O)c1ccccc1-c1c2ccc(=N)cc-2oc2cc(N)ccc12` are “inactive”, 88.3%, 17.8 µM, 17.1 µM and 18.6 µM.
Turning to `CCc1nc2c(OCCC3CCCCC3)cccn2c1N(C)C(=O)c1ccc(C)cc1`, the outcome was inactive and the inhibition worked out at 111%. The compound further displayed an IC50 under setting [1] of 18.8 µM. Besides, the 50% inhibitory concentration (IC50) (CXCR6, run 1, dose range 2) is 17.9 µM. The IC50 (CXCR6, run 2, dose range 2) is 19.6 µM.
For `C=CCN(CC=C)C(=S)NC(=O)c1ccc(C)c(Br)c1`, the outcome was inactive and the inhibition came out at 65.4%. Under setting [1], this compound yielded an IC50 of 12.6 µM. Moreover, where the note is “CXCR6, run 1, dose range 2”, the IC50 came to 11.7 µM. Further, the IC50 (CXCR6, run 2, dose range 2) was determined as 13.4 µM.
